Values joined by “and” are separate entries in the source; they are usually repeats but may differ in a detail not shown here. Equal values may be shown once.
Conditions: gamma-densimeter

Fc1cc(F)c(F)c(F)c1F [pentafluorobenzene]
mass density
Conditions | Gas | Liquid
293.47 K | – | 1525.2 kg/m3
314 K | 1.13 kg/m3 | 1483.8 kg/m3
334 K | – | 1441.8 kg/m3
353.98 K | – | 1399.8 kg/m3
374.24 K | – | 1353.6 kg/m3
393.95 K | 15.9 kg/m3 | 1307.6 kg/m3
413.94 K | 24.8 kg/m3 and 24.9 kg/m3 | 1257.5 kg/m3
413.95 K | 24.7 kg/m3 | –
433.98 K | 38.6 kg/m3 | 1203 kg/m3
454.02 K | 58.3 kg/m3 | 1142.5 kg/m3
473.98 K | 87.1 kg/m3 | 1072.2 kg/m3
493.99 K | 131.1 kg/m3 | 986.7 kg/m3
504.08 K | 163.1 kg/m3 | 933.6 kg/m3
514.2 K | 208.7 kg/m3 | 866.1 kg/m3
524.52 K | 287.7 kg/m3 | 764.6 kg/m3

Conditions | Critical temperature [K]
Liquid | 531.04

Source: the NIST ThermoML archive (doi:10.1007/s10765-010-0886-6)
